Assays:
Assay type in all cases: in vivo
[1] = tested on: barnyardgrass (Echinochloa crus-galli); assay: Test A postemergence, barnyardgrass; conditions: Echinochloa crus-galli, post-emergence, 240 h, 0 to 100 scale (0 no effect, 100 complete control), read-out: Plant response rating, Barnyardgrass; for pest or weed control at 31 g/ha: 31 g ai/ha; for pest or weed control at 125 g/ha: 125 g ai/ha
Text: (§1) Seeds of plant species selected from barnyardgrass (Echinochloa crus-galli), kochia (Kochia scoparia), ragweed (common ragweed, Ambrosia elatior), ryegrass, Italian (Italian ryegrass, Lolium multiflorum), foxtail, giant (giant foxtail, Setaria faberii), foxtail, green (green foxtail, Setaria viridis) and pigweed (Amaranthus retroflexus) were planted into a blend of loam soil and sand and treated preemergence with a directed soil spray using test chemicals formulated in a non-phytotoxic solvent mixture which included a surfactant.
(§2) At the same time, plants selected from these weed species and also wheat (Triticum aestivum), corn (Zea mays), blackgrass (Alopecurus myosuroides), and galium (catchweed bedstraw, Galium aparine) were planted in pots containing the same blend of loam soil and sand and treated with postemergence applications of test chemicals formulated in the same manner. Plants ranged in height from 2 to 10 cm and were in the one- to two-leaf stage for the postemergence treatment. Treated plants and untreated controls were maintained in a greenhouse for approximately 10 days, after which time all treated plants were compared to untreated controls and visually evaluated for injury. […] A dash (-) response means no test result.

[2] = tested on: wheat (Triticum aestivum); assay: Test A postemergence, wheat; conditions: Triticum aestivum, post-emergence, 240 h, 0 to 100 scale (0 no effect, 100 complete control), read-out: Plant response rating, Wheat; for plant injury at 31 g/ha: 31 g ai/ha; for plant injury at 125 g/ha: 125 g ai/ha
Text: as §1, §2

[3] = tested on: ryegrass, Italian (Italian ryegrass, Lolium multiflorum); assay: Test A postemergence, ryegrass, Italian; conditions: Lolium multiflorum, post-emergence, 240 h, 0 to 100 scale (0 no effect, 100 complete control), read-out: Plant response rating, Ryegrass, Italian; for pest or weed control at 31 g/ha: 31 g ai/ha; for pest or weed control at 125 g/ha: 125 g ai/ha
Text: as §1, §2

[4] = tested on: galium (catchweed bedstraw, Galium aparine); assay: Test A postemergence, galium; conditions: Galium, post-emergence, 240 h, 0 to 100 scale (0 no effect, 100 complete control), read-out: Plant response rating, Galium; for pest or weed control at 31 g/ha: 31 g ai/ha; for pest or weed control at 125 g/ha: 125 g ai/ha
Text: as §1, §2

[5] = tested on: pigweed (Amaranthus retroflexus); assay: Test A preemergence, pigweed; conditions: Amaranthus retroflexus, pre-emergence, 240 h, 0 to 100 scale (0 no effect, 100 complete control), read-out: Plant response rating, Pigweed; for pest or weed control at 31 g/ha: 31 g ai/ha; for pest or weed control at 125 g/ha: 125 g ai/ha
Text: as §1, §2

[6] = tested on: ragweed (common ragweed, Ambrosia elatior); assay: Test A preemergence, ragweed; conditions: Ambrosia artemisiifolia, pre-emergence, 240 h, 0 to 100 scale (0 no effect, 100 complete control), read-out: Plant response rating, Ragweed; for pest or weed control at 31 g/ha: 31 g ai/ha; for pest or weed control at 125 g/ha: 125 g ai/ha
Text: as §1, §2

[7] = tested on: pigweed (Amaranthus retroflexus); assay: Test A postemergence, pigweed; conditions: Amaranthus retroflexus, post-emergence, 240 h, 0 to 100 scale (0 no effect, 100 complete control), read-out: Plant response rating, Pigweed; for pest or weed control at 31 g/ha: 31 g ai/ha; for pest or weed control at 125 g/ha: 125 g ai/ha
Text: as §1, §2

[8] = tested on: ragweed (common ragweed, Ambrosia elatior); assay: Test A postemergence, ragweed; conditions: Ambrosia artemisiifolia, post-emergence, 240 h, 0 to 100 scale (0 no effect, 100 complete control), read-out: Plant response rating, Ragweed; for pest or weed control at 31 g/ha: 31 g ai/ha; for pest or weed control at 125 g/ha: 125 g ai/ha
Text: as §1, §2

[9] = tested on: blackgrass (Alopecurus myosuroides); assay: Test A postemergence, blackgrass; conditions: Alopecurus myosuroides, post-emergence, 240 h, 0 to 100 scale (0 no effect, 100 complete control), read-out: Plant response rating, Blackgrass; for pest or weed control at 31 g/ha: 31 g ai/ha; for pest or weed control at 125 g/ha: 125 g ai/ha
Text: as §1, §2

[10] = tested on: ryegrass, Italian (Italian ryegrass, Lolium multiflorum); assay: Test A preemergence, ryegrass, Italian; conditions: Lolium multiflorum, pre-emergence, 240 h, 0 to 100 scale (0 no effect, 100 complete control), read-out: Plant response rating, Ryegrass, Italian; for pest or weed control at 31 g/ha: 31 g ai/ha; for pest or weed control at 125 g/ha: 125 g ai/ha
Text: as §1, §2

[11] = tested on: barnyardgrass (Echinochloa crus-galli); assay: Test A preemergence, barnyardgrass; conditions: Echinochloa crus-galli, pre-emergence, 240 h, 0 to 100 scale (0 no effect, 100 complete control), read-out: Plant response rating, Barnyardgrass; for pest or weed control at 31 g/ha: 31 g ai/ha; for pest or weed control at 125 g/ha: 125 g ai/ha
Text: as §1, §2

kochia (Kochia scoparia) [12] = assay: Test A postemergence, kochia; conditions: Bassia scoparia, post-emergence, 240 h, 0 to 100 scale (0 no effect, 100 complete control), read-out: Plant response rating, Kochia; for pest or weed control at 31 g/ha: 31 g ai/ha; for pest or weed control at 125 g/ha: 125 g ai/ha
Text: as §1, §2

kochia (Kochia scoparia) [13] = assay: Test A preemergence, kochia; conditions: Bassia scoparia, pre-emergence, 240 h, 0 to 100 scale (0 no effect, 100 complete control), read-out: Plant response rating, Kochia; for pest or weed control at 31 g/ha: 31 g ai/ha; for pest or weed control at 125 g/ha: 125 g ai/ha
Text: as §1, §2

corn (Zea mays) = assay: Test A postemergence, corn; conditions: Zea mays, post-emergence, 240 h, 0 to 100 scale (0 no effect, 100 complete control); for Corn plant response rating (crop injury, 0 = no effect, 100 = complete kill) at 31 g/ha: 31 g ai/ha; for Corn plant response rating (crop injury, 0 = no effect, 100 = complete kill) at 125 g/ha: 125 g ai/ha
Text: as §1, §2

[14] = tested on: foxtail, giant (giant foxtail, Setaria faberii); assay: Test A preemergence, foxtail, giant; conditions: Setaria faberi, pre-emergence, 240 h, 0 to 100 scale (0 no effect, 100 complete control), read-out: Plant response rating, Foxtail, Giant
Text: as §1, §2

Compound | pest or weed control at 31 g/ha [1] | pest or weed control at 125 g/ha [1] | plant injury at 31 g/ha [2] | plant injury at 125 g/ha [2] | pest or weed control at 31 g/ha [3] | pest or weed control at 125 g/ha [3] | pest or weed control at 31 g/ha [4] | pest or weed control at 125 g/ha [4] | pest or weed control at 31 g/ha [5] | pest or weed control at 125 g/ha [5] | pest or weed control at 31 g/ha [6] | pest or weed control at 125 g/ha [6] | pest or weed control at 31 g/ha [7] | pest or weed control at 125 g/ha [7] | pest or weed control at 31 g/ha [8] | pest or weed control at 125 g/ha [8] | pest or weed control at 31 g/ha [9] | pest or weed control at 125 g/ha [9] | pest or weed control at 31 g/ha [10] | pest or weed control at 125 g/ha [10] | further results
O=C1CC(CCC(F)(F)F)c2c(Oc3ncc(Cl)cn3)cccc21 (stereo not shown) [Compound 11, 4-[(5-Chloro-2-pyrimidinyl)oxy]-2,3-dihydro-3-(3,3,3-trifluoropropyl)-1H-inden-1-one] | 20% | 30% | 0% | 10% | 30% | 40% | 10% | 40% | 10% | 100% | 0% | 0% | 40% | 50% | 0% | 10% | 0% | 20% | 0% | 20% | pest or weed control at 31 g/ha [11]: 0%; pest or weed control at 125 g/ha [11]: 50%; pest or weed control at 31 g/ha (kochia (Kochia scoparia) [12]): 20%; pest or weed control at 125 g/ha (kochia (Kochia scoparia) [12]): 50%; pest or weed control at 31 g/ha (kochia (Kochia scoparia) [13]): 0%; pest or weed control at 125 g/ha (kochia (Kochia scoparia) [13]): 20%; Corn plant response rating (crop injury, 0 = no effect, 100 = complete kill) at 31 g/ha (corn (Zea mays)): 0%; Corn plant response rating (crop injury, 0 = no effect, 100 = complete kill) at 125 g/ha (corn (Zea mays)): 10%
O=C1OCc2cccc(Oc3ncc(Cl)cn3)c2C1CCCC(F)(F)F (stereo not shown) [Compound 26, 5-[(5-Chloro-2-pyrimidinyl)oxy]-1,4-dihydro-4-(4,4,4-trifluorobutyl)-3H-2-benzopyran-3-one] | 100% | 100% | 0% | 0% | 0% | 0% | 20% | 50% | 20% | 100% | 0% | 0% | 30% | 60% | 0% | 10% | 0% | 0% | 0% | 10% | pest or weed control at 31 g/ha ([14]; 31 g ai/ha): 0%; pest or weed control at 125 g/ha ([14]; 125 g ai/ha): 60%; pest or weed control at 31 g/ha [11]: 0%; pest or weed control at 125 g/ha [11]: 30%; pest or weed control at 31 g/ha (kochia (Kochia scoparia) [12]): 20%; pest or weed control at 125 g/ha (kochia (Kochia scoparia) [12]): 60%; pest or weed control at 31 g/ha (kochia (Kochia scoparia) [13]): 0%; pest or weed control at 125 g/ha (kochia (Kochia scoparia) [13]): 20%; Corn plant response rating (crop injury, 0 = no effect, 100 = complete kill) at 31 g/ha (corn (Zea mays)): 10%; Corn plant response rating (crop injury, 0 = no effect, 100 = complete kill) at 125 g/ha (corn (Zea mays)): 20%

— patent US11427549B2, “Pyrimidinyloxy benzo-fused compounds as herbicides” (FMC Corporation, priority 2017, dated 2022)
